Results from patent publication US20260242416A1, “ANTIMICROBIAL PEPTIDES” (priority 2023, published 2026).
Where a SMILES comes first, the peptide text is derived from it.

Tested on: E. coli ATCC 25922, Salmonella Enteritidis, S. aureus ATCC 29213
Experiment: Broth microdilution, panel result (at least one / all strains), Example 2
Assay type: cell-based
Design: key to inhibitory activity (asterisk): *Indicates inhibitory activity
Conditions: Table 14; against at least one of E. coli ATCC 25922, Salmonella Enteritidis, S. aureus ATCC 29213
Experimental: The antimicrobial activity of the putative AMPs was determined by a broth microdilution assay as described by the Clinical and Laboratory Standards Institute, with the published adaptations for testing of cationic peptides. Escherichia coli 25922 and Staphylococcus aureus 29213 isolates were purchased from the American Type Culture Collection (ATCC; Manassas, VA, USA). A human clinical isolate of Salmonella enterica serovar Enteritidis was provided by the BC Centre for Disease Control. Bacteria from stocks stored at −80° C. were streaked onto nonselective Columbia blood agar with 5% sheep blood (Oxoid) and incubated overnight at 37° C. Next, 2-4 colonies were streaked onto a new agar plate to ensure uniform health of colonies used in the broth microdilution assay. Isolated colonies were suspended in MHB and the optical density was measured with a spectrophotometer to create an initial inoculum concentration of approximately 1×10^8 cfu/mL. The inoculum was diluted 1:250 to a final concentration of 2-8×10^5 cfu/mL, which was confirmed by performing a Total Viability Count (TVC). The TVC consisted of plating a 1:1000 dilution of the final inoculum on nonselective media and was also used to confirm the health and purity of the inoculum in each trial.
Lyophilized 80 μg peptide aliquots synthesized by GenScript (Piscataway, NJ, USA) were resuspended to 1.28 mg/mL with UltraPure water (Thermo Fisher Scientific, Waltham, MA, USA) and serially diluted in polypropylene 96-well microtiter plates (Greiner Bio-One #650261, Kremsmunster, Austria) from 128 down to 0.5 μg/mL. Two columns per plate were reserved for growth and sterility controls. Inoculum was added to the wells containing the peptide and the growth control. Plates were incubated for 20-24 h at 37° C. The minimum inhibitory concentration (MIC) was determined as the lowest peptide concentration where there was no visible bacterial growth.

| Structure (SMILES) | inhibitory activity (asterisk) |
| --- | --- |
| CC[C@H](C)[C@H](NC(=O)CN)C(=O)N[C@@H](CC(C)C)C(=O)N[C@@H](CCCNC(=N)N)C(=O)N[C@@H](CC(C)C)C(=O)N[C@H](C(=O)N[C@H](C(=O)N[C@@H](CCCNC(=N)N)C(=O)N[C@@H](CCCNC(=N)N)C(=O)N[C@@H](Cc1ccccc1)C(=O)N[C@@H](CCCNC(=N)N)C(=O)N[C@@H](Cc1ccccc1)C(=O)N[C@@H](CO)C(=O)N1CCC[C@H]1C(=O)N[C@H](C(=O)N[C@@H](CC(N)=O)C(=O)N[C@@H](CC(C)C)C(=O)N[C@@H](CC(N)=O)C(=O)N[C@@H](CCCNC(=N)N)C(=O)N[C@@H](Cc1ccc(O)cc1)C(=O)N[C@H](C(=O)N[C@H](C(=O)N[C@@H](C)C(=O)N[C@@H](CCCNC(=N)N)C(=O)N[C@@H](CC(C)C)C(=O)N[C@H](C(=O)N[C@@H](CO)C(=O)NCC(=O)N[C@H](C(=O)N1CCC[C@H]1C(=O)O)C(C)C)C(C)C)C(C)C)[C@@H](C)O)[C@@H](C)O)[C@@H](C)O)C(C)C [BoAr6] (H-GILRLVTRRFRFSPTNLNRYTVARLVSGVP-OH; N-terminus and C-terminus assumed) | 790.* GILRLVTRRFRFSPTNLNRYTVARLVSGVP |
| CC[C@H](C)[C@H](NC(=O)[C@H](CCCCN)NC(=O)[C@@H](N)CCCNC(=N)N)C(=O)N[C@H](C(=O)N[C@@H](C)C(=O)N[C@H](C(=O)N[C@@H](CO)C(=O)N[C@H](C(=O)N[C@@H](Cc1c[nH]cn1)C(=O)N[C@@H](CCCCN)C(=O)N[C@@H](CC(C)C)C(=O)N[C@@H](CS)C(=O)N[C@@H](CCCNC(=N)N)C(=O)N[C@H](C(=O)N[C@@H](CCCCN)C(=O)N[C@@H](CCCNC(=N)N)C(=O)O)C(C)C)C(C)C)C(C)C)[C@@H](C)CC [BoUs1, RKIIAVSVHKLCRVKR] (H-RKIIAVSVHKLCRVKR-OH; N-terminus and C-terminus assumed) | 815.* RKIIAVSVHKLCRVKR |
| CC[C@H](C)[C@H](NC(=O)[C@@H](N)Cc1ccccc1)C(=O)N[C@@H](CCCCN)C(=O)N[C@H](C(=O)N[C@@H](CCC(N)=O)C(=O)N[C@H](C(=O)N[C@@H](CC(C)C)C(=O)N[C@@H](CCCCN)C(=O)N[C@@H](Cc1c[nH]cn1)C(=O)N[C@@H](CC(C)C)C(=O)N[C@H](C(=O)N[C@@H](C)C(=O)NCC(=O)N[C@H](C(=O)N[C@@H](CCCNC(=N)N)C(=O)N[C@H](C(=O)N[C@@H](C)C(=O)N[C@@H](CCCNC(=N)N)C(=O)NCC(=O)N[C@@H](CC(C)C)C(=O)N[C@@H](CC(=O)O)C(=O)N[C@@H](Cc1c[nH]c2ccccc12)C(=O)N[C@@H](CCCCN)C(=O)N[C@@H](Cc1c[nH]c2ccccc12)C(=O)N[C@@H](CCCNC(=N)N)C(=O)O)C(C)C)C(C)C)C(C)C)C(C)C)[C@@H](C)O [CaCa2] (H-FIKTQVLKHLVAGVRVARGLDWKWR-OH; N-terminus and C-terminus assumed) | 819.* FIKTQVLKHLVAGVRVARGLDWKWR |
| CC[C@H](C)[C@H](NC(=O)[C@H](CCCCN)NC(=O)[C@H](CS)NC(=O)[C@H](Cc1ccccc1)NC(=O)[C@H](CCCCN)NC(=O)[C@H](CCCNC(=N)N)NC(=O)[C@H](CO)NC(=O)[C@H](Cc1ccc(O)cc1)NC(=O)CNC(=O)[C@H](CS)NC(=O)[C@@H]1CCCN1C(=O)[C@H](C)NC(=O)[C@@H](NC(=O)[C@H](C)NC(=O)[C@H](Cc1ccccc1)NC(=O)[C@H](Cc1ccccc1)NC(=O)[C@H](Cc1ccccc1)NC(=O)[C@H](CCCNC(=N)N)NC(=O)[C@@H](N)CCCNC(=N)N)[C@@H](C)O)C(=O)N[C@H](C(=O)N[C@@H](CCCNC(=N)N)C(=O)N[C@@H](CCCNC(=N)N)C(=O)N[C@@H](CCCCN)C(=O)N[C@@H](CCCNC(=N)N)C(=O)O)[C@@H](C)O [CaCa4] (H-RRFFFATAPCGYSRKFCKITRRKR-OH; N-terminus and C-terminus assumed) | 816.* RRFFFATAPCGYSRKFCKITRRKR |
| CC(C)C[C@H](NC(=O)[C@@H](NC(=O)[C@H](Cc1ccccc1)NC(=O)[C@H](C)NC(=O)CN)C(C)C)C(=O)N[C@@H](Cc1c[nH]c2ccccc12)C(=O)NCC(=O)N1CCC[C@H]1C(=O)N[C@H](C(=O)N1CCC[C@H]1C(=O)N[C@@H](CCCNC(=N)N)C(=O)N1CCC[C@H]1C(=O)N[C@@H](CCCNC(=N)N)C(=O)N[C@@H](CCCNC(=N)N)C(=O)N[C@@H](CCCNC(=N)N)C(=O)O)[C@@H](C)O [DiLo1, GAFVLWGPTPRPRRR] (H-GAFVLWGPTPRPRRR-OH; N-terminus and C-terminus assumed) | 864.* GAFVLWGPTPRPRRR |
| CC[C@H](C)[C@H](NC(=O)[C@H](C)NC(=O)[C@H](CCCNC(=N)N)NC(=O)[C@@H](N)CCCNC(=N)N)C(=O)N[C@@H](Cc1ccccc1)C(=O)N[C@@H](C)C(=O)N[C@@H](CO)C(=O)N[C@H](C(=O)N[C@@H](CCCNC(=N)N)C(=O)NCC(=O)N[C@@H](Cc1ccc(O)cc1)C(=O)N[C@@H](CC(C)C)C(=O)NCC(=O)N[C@@H](CC(C)C)C(=O)N[C@@H](CCCNC(=N)N)C(=O)N[C@@H](CCCCN)C(=O)N[C@@H](CCCNC(=N)N)C(=O)O)[C@@H](C)CC [MyGu1, RRAIFASIRGYLGLRKR] (H-RRAIFASIRGYLGLRKR-OH; N-terminus and C-terminus assumed) | 881.* RRAIFASIRGYLGLRKR |
| CC[C@H](C)[C@H](NC(=O)[C@H](CCCCN)NC(=O)[C@H](CS)NC(=O)[C@H](CCCCN)NC(=O)[C@H](CC(C)C)NC(=O)[C@H](CC(N)=O)NC(=O)[C@H](CC(=O)O)NC(=O)[C@H](CC(C)C)NC(=O)[C@H](CC(C)C)NC(=O)[C@@H](NC(=O)[C@@H](NC(=O)[C@H](C)NC(=O)[C@@H](NC(=O)[C@H](CC(N)=O)NC(=O)[C@H](CCCCN)NC(=O)[C@H](C)NC(=O)[C@@H](NC(=O)[C@H](CC(N)=O)NC(=O)[C@H](CCCCN)NC(=O)[C@H](C)NC(=O)[C@@H](NC(=O)[C@H](CC(=O)O)NC(=O)[C@H](CCSC)NC(=O)[C@H](Cc1ccccc1)NC(=O)CN)[C@@H](C)O)C(C)C)C(C)C)C(C)C)[C@@H](C)O)C(=O)N[C@H](C(=O)N[C@@H](CCCCN)C(=O)N[C@@H](C)C(=O)N[C@@H](CS)C(=O)O)[C@@H](C)O [OdMa13] (H-GFMDTAKNVAKNVAVTLLDNLKCKITKAC-OH; N-terminus and C-terminus assumed) | 1095.* GFMDTAKNVAKNVAVTLLDNLKCKITKAC |
| CC[C@H](C)[C@H](NC(=O)CNC(=O)[C@H](CCCNC(=N)N)NC(=O)[C@H](CCCCN)NC(=O)[C@H](CCCCN)NC(=O)[C@H](CCCNC(=N)N)NC(=O)[C@@H]1CCCN1C(=O)[C@@H](NC(=O)[C@H](CCSC)NC(=O)[C@H](CC(C)C)NC(=O)[C@@H](N)CCCCN)[C@@H](C)CC)C(=O)N[C@@H](Cc1ccccc1)C(=O)NCC(=O)NCC(=O)N[C@@H](CC(C)C)C(=O)N[C@@H](CC(C)C)C(=O)N[C@@H](CCCCN)C(=O)N[C@H](C(=O)NCC(=O)N[C@@H](CCCCN)C(=O)N[C@@H](CCCCN)C(=O)N[C@H](C(=O)N[C@@H](C)C(=O)N[C@@H](CS)C(=O)NCC(=O)N[C@@H](CC(C)C)C(=O)N[C@@H](CO)C(=O)NCC(=O)N[C@@H](CC(C)C)C(=O)N[C@@H](CS)C(=O)O)[C@@H](C)CC)C(C)C [OdTo4] (H-KLMIPRKKRGIFGGLLKVGKKIACGLSGLC-OH; N-terminus and C-terminus assumed) | 190.* KLMIPRKKRGIFGGLLKVGKKIACGLSGLC |
| CC(C)C[C@H](NC(=O)CN)C(=O)N[C@@H](CC(C)C)C(=O)NCC(=O)N[C@@H](CCCCN)C(=O)N[C@H](C(=O)N[C@@H](CC(C)C)C(=O)NCC(=O)N[C@H](C(=O)NCC(=O)N[C@@H](CCCCN)C(=O)N[C@@H](CCCCN)C(=O)N[C@H](C(=O)N[C@@H](CC(C)C)C(=O)N[C@@H](CS)C(=O)NCC(=O)N[C@H](C(=O)N[C@H](C(=O)NCC(=O)N[C@@H](CCCNC(=N)N)C(=O)N[C@@H](CCC(=O)O)C(=O)N[C@@H](CCCNC(=N)N)C(=O)N[C@@H](CS)C(=O)N[C@@H](CCC(N)=O)C(=O)O)[C@@H](C)O)C(C)C)C(C)C)C(C)C)C(C)C [PeNi5] (H-GLLGKVLGVGKKVLCGVTGRERCQ-OH; N-terminus and C-terminus assumed) | 359.* GLLGKVLGVGKKVLCGVTGRERCQ |
| CC[C@H](C)[C@H](NC(=O)[C@@H](N)C(C)C)C(=O)N1CCC[C@H]1C(=O)N[C@@H](Cc1ccccc1)C(=O)N[C@H](C(=O)N[C@@H](C)C(=O)N[C@@H](CO)C(=O)N[C@H](C(=O)N[C@@H](C)C(=O)N[C@@H](C)C(=O)N[C@@H](CCC(=O)O)C(=O)N[C@@H](CCSC)C(=O)N[C@@H](CCSC)C(=O)N[C@@H](Cc1c[nH]cn1)C(=O)N[C@@H](Cc1c[nH]cn1)C(=O)N[C@H](C(=O)N[C@@H](Cc1ccc(O)cc1)C(=O)N[C@@H](CS)C(=O)N[C@@H](C)C(=O)N[C@@H](C)C(=O)N[C@@H](CO)C(=O)N[C@@H](CCCCN)C(=O)N[C@@H](CCCNC(=N)N)C(=O)N[C@@H](CS)C(=O)N[C@@H](CCCCN)C(=O)N[C@@H](CC(N)=O)C(=O)O)C(C)C)C(C)C)C(C)C [PeNi7] (H-VIPFVASVAAEMMHHVYCAASKRCKN-OH; N-terminus and C-terminus assumed) | 1088.* VIPFVASVAAEMMHHVYCAASKRCKN |
